Measured values as given in patent US6391329B1, “Insect pest control method” (Earth Chemical Co., Ltd., priority 1994, dated 2002).

Experiments:
[1] = Vapor pressure at 30° C. on the cox diagram; assay type: physicochemical
Procedure: Compounds which are hard to vaporize at normal temperature can be used in the present invention as a pesticidal component. Those having a vapor pressure […] than 1×10^−7 mmHg at 30° C. and a boiling point of not lower than 120° C./1 mmHg are preferred. It should be noted that the range of vapor pressure as referred to herein is the range at 30° C. on the vapor pressure vs. temperature plot in the cox diagram hereinafter described.
The results of our study have made it possible to suppose or know the vapor pressure at a target temperature by utilizing the cox diagram only if at least one found value is available. The aforesaid problem can thus be solved.
The cox diagram as used herein is the straight line or a group of the straight lines obtained by plotting log P as ordinate and t/(t+C) as abscissa on a graph.

[2] = test system: Northern house mosquito (female adult); experiment: Insecticidal test in acrylic resin cylinder, air blown through impregnated honeycomb carrier (Example 1); assay type: in vivo; details: 500 mg preparation; for number of knockdowns: 26 to 30° C.
From the text: Testing apparatus 1 shown in FIG. 1 comprising acrylic resin cylinder 4 was used. Twenty of northern house mosquitos (female adult) were put in the space partitioned with insect nets 2, and blower 3 was set at the bottom of testing apparatus 1. Preparation-retaining material 5 comprising a honeycomb carrier impregnated with a preparation was fitted in at the lower part of cylinder 4 and above blower 3. Air was blown from the bottom of cylinder 4 and passed through the preparation-retaining material 5 to release the pesticidal component from the preparation, and the insecticidal effect was examined using apparatus 1 for insect control of the present invention.
The number of knockdowns of the mosquitos was counted for every 30 seconds during 10 minutes and 30 seconds following the start of the testing. The mosquitos knocked down were transferred to a clean plastic cup (volume: about 500 ml) containing a cotton wad impregnated with a 1% aqueous sugar solution as feed, and the cup was covered and maintained under constant temperature conditions of about 25° C. […]
The preparation-retaining material used herein was prepared as follows. A honeycomb structure (70×70×15 mm) comprising a laminate of corrugated boards (single-sided) made of bleached kraft paper having a basis weight of 80 g/m^2 (height of the corrugation: about 2 mm) was uniformly impregnated with 3 ml of an acetone solution containing about 500 mg of preparation. The impregnated carrier was set in the apparatus after acetone vaporized.

[3] = Vapor pressure measurement of pyrethroid compounds with the vapor pressure measuring apparatus
[4] = test system: sensitive German cockroaches (Blatella germanica); experiment: Cockroach knockdown and mortality in 24 m^3 test room (Example 3); assay type: in vivo; details: 1.0 g pesticidal component
Procedure: (§1) The insect pest control apparatus of the present invention was put at the center of the floor of the room, and two cups each containing 20 cockroaches were placed at each of the two opposite corners of the floor. The pesticidal component shown in Table 5 below was released from the apparatus for consecutive 24 hours. As test insects, sensitive German cockroaches (Blatella germanica) and sensitive smokybrown cockroaches (Periplaneta fuliginosa) were used.
(§2) The preparation-retaining material used was prepared by impregnating a honeycomb carrier (70×70×15 mm; FIG. 3) with 1.0 g of the pesticidal component.

[5] = test system: sensitive smokybrown cockroaches (Periplaneta fuliginosa); experiment: as above; assay type: in vivo; details: 1.0 g pesticidal component
Procedure: as §1, §2

Structure (SMILES) | Vapor Pressure at 30° C. [1] | number of knockdowns ([2]; 0.5 min) | number of knockdowns ([2]; 1.0 min) | number of knockdowns ([2]; 1.5 min) | number of knockdowns ([2]; 2.0 min) | number of knockdowns ([2]; 2.5 min) | number of knockdowns ([2]; 3.0 min) | number of knockdowns ([2]; 3.5 min) | Mortality (%) ([2]; 24 hrs.) | Mortality (%) ([2]; 48 hrs.) | Vapor Pressure ([3]; 20° C.) | Vapor Pressure ([3]; 25° C.) | Vapor Pressure ([3]; 30° C.) | Vapor Pressure ([3]; 35° C.) | Vapor Pressure ([3]; 40° C.) | other results
C#CCc1ccc(COC(=O)C2C(C=C(C)C)C2(C)C)o1 (mixture of isomers) [furamethrin, 5-propargyl-2-furylmethyl d-cis/trans-chrysanthemate] | 4.5 × 10^−4 mmHg | 0 | 0 | 0 | 1 | 3 | 8 | 18 | 100 | 100 | 1.3 × 10^−4 mmHg | 2.2 × 10^−4 mmHg | 4.5 × 10^−4 mmHg | 7.1 × 10^−4 mmHg | 1.4 × 10^−3 mmHg | number of knockdowns ([2]; 4.0 min): 19
CC1(C)C(C=C(Cl)Cl)C1C(=O)OCc1cccc(Oc2ccccc2)c1 (mixture of isomers) [permethrin, 3-phenoxybenzyl-dl-cis/trans-3-(2,2-dichlorovinyl)-2,2-dimethyl-1-cyclopropanecarboxylate] |  |  |  |  |  |  |  |  |  |  | 5.5 × 10^−7 mmHg | 1.1 × 10^−6 mmHg | 1.9 × 10^−6 mmHg | 3.6 × 10^−6 mmHg | 6.3 × 10^−6 mmHg | 
CC(C)=CC1C(C(=O)OCc2cccc(Oc3ccccc3)c2)C1(C)C (mixture of isomers) [phenothrin, 3-phenoxybenzyl-d-cis/trans-chrysanthemate] |  |  |  |  |  |  |  |  |  |  | 1.2 × 10^−6 mmHg | 2.2 × 10^−6 mmHg | 4.3 × 10^−6 mmHg | 7.7 × 10^−6 mmHg | 1.4 × 10^−5 mmHg | 
CC(C)=CC1C(C(=O)OCN2C(=O)C3=C(CCCC3)C2=O)C1(C)C (mixture of isomers) [phthalthrin, (1,3,4,5,6,7-hexahydro-1,3-dioxo-2-isoindolyl)methyl dl-cis/trans-chrysanthemate] |  |  |  |  |  |  |  |  |  |  | 3.5 × 10^−8 mmHg | 6.6 × 10^−8 mmHg | 1.2 × 10^−7 mmHg | 2.2 × 10^−7 mmHg | 3.8 × 10^−7 mmHg | 
C#CCC1=C(C)C(OC(=O)C2C(C=C(C)C)C2(C)C)CC1=O (mixture of isomers) [prallethrin, (+)-2-methyl-4-oxo-3-(2-propynyl)-2-cyclopentenyl (+)-cis/trans-chrysanthemate] | 1.3 × 10^−4 mmHg | 0 | 0 | 1 | 10 | 15 | 21 | 22 | 86 | 100 | 3.5 × 10^−5 mmHg | 6.9 × 10^−5 mmHg | 1.3 × 10^−4 mmHg | 2.4 × 10^−4 mmHg | 4.4 × 10^−4 mmHg | 
CC(C)=CC1C(C(=O)OCc2coc(Cc3ccccc3)c2)C1(C)C (mixture of isomers) [resmethrin, (5-benzyl-3-furyl)methyl d-cis/trans-chrysanthemate] | 1.7 × 10^−5 mmHg | 0 | 0 | 0 | 0 | 2 | 2 | 4 | 58 | 79 | 3.5 × 10^−6 mmHg | 7.1 × 10^−6 mmHg | 1.7 × 10^−5 mmHg | 2.8 × 10^−5 mmHg | 5.6 × 10^−5 mmHg | number of knockdowns ([2]; 4.0 min): 5; number of knockdowns ([2]; 4.5 min): 5; number of knockdowns ([2]; 5.0 min): 7; number of knockdowns ([2]; 5.5 min): 7; number of knockdowns ([2]; 6.0 min): 8; number of knockdowns ([2]; 6.5 min): 10; number of knockdowns ([2]; 7.0 min): 12; number of knockdowns ([2]; 7.5 min): 13; number of knockdowns ([2]; 8.0 min): 16; number of knockdowns ([2]; 8.5 min): 17; number of knockdowns ([2]; 9.0 min): 19
CC(C)=CC1C(C(=O)OC(C#N)c2cccc(Oc3ccccc3)c2)C1(C)C (racemic) [cyphenothrin, (±) αa-cyano-3-phenoxybenzyl(+)-cis/trans-chrysanthemate] |  |  |  |  |  |  |  |  |  |  | 9.2 × 10^−7 mmHg | 1.9 × 10^−6 mmHg | 3.6 × 10^−6 mmHg | 6.6 × 10^−6 mmHg | 1.3 × 10^−5 mmHg | 
C=CCC1=C(C)C(OC(=O)C2C(C)(C)C2(C)C)CC1=O (racemic) [terallethrin, dl-3-allyl-2-methyl-4-oxo-2-cyclopentenyl dl-cis/trans-2,2,3,3-tetramethylcyclopropanecarboxylate] | 6.6 × 10^−4 mmHg | 0 | 0 | 4 | 15 | 17 |  |  | 88 | 100 | 2.2 × 10^−4 mmHg | 4.2 × 10^−4 mmHg | 6.6 × 10^−4 mmHg | 1.2 × 10^−3 mmHg | 4.8 × 10^−3 mmHg | 
CC1(C)C(C=C(Cl)Cl)C1C(=O)OCc1c(F)c(F)cc(F)c1F (stereo not drawn) [benfluthrin, d-trans-2,3,5,6-tetrafluorobenzyl-3-(2,2-dichlorovinyl)-2,2-dimethyl-1-cyclopropanecarboxylate] |  |  |  |  |  |  |  |  |  |  | 8.3 × 10^−5 mmHg | 1.5 × 10^−4 mmHg | 2.7 × 10^−4 mmHg | 4.0 × 10^−4 mmHg | 8.5 × 10^−4 mmHg | Knockdown Ratio (%) ([4]; 1 hr): 0%; Knockdown Ratio (%) ([4]; 2 hrs): 0%; Knockdown Ratio (%) ([4]; 4 hrs): 0%; Knockdown Ratio (%) ([4]; 24 hrs): 87.5%; Mortality at 48 hrs (%) ([4]; 48 hrs): 97.5%; Knockdown Ratio (%) ([5]; 1 hr): 0%; Knockdown Ratio (%) ([5]; 2 hrs): 0%; Knockdown Ratio (%) ([5]; 4 hrs): 5.0%; Knockdown Ratio (%) ([5]; 24 hrs): 6.3%; Mortality at 48 hrs (%) ([5]; 48 hrs): 7.5%
C=CCC1=C(C)C(OC(=O)C2C(C=C(C)C)C2(C)C)CC1=O (stereo not drawn) [esbiol, d-3-allyl-2-methyl-4-oxo-2-cyclopentenyl d-trans-chrysanthemate] | 1.2 × 10^−4 mmHg | 0 | 0 | 1 | 3 | 10 | 17 | 19 | 70 | 78 |  |  |  |  |  | number of knockdowns ([2]; 4.0 min): 22
CC(C)=CC1C(C(=O)OCN2C(=O)C3=C(CCCC3)C2=O)C1(C)C (stereo not shown) [tetramethrin] |  |  |  |  |  |  |  |  |  |  | 2.4 × 10^−6 mmHg | 4.4 × 10^−6 mmHg | 8.5 × 10^−6 mmHg | 1.7 × 10^−5 mmHg | 3.2 × 10^−5 mmHg | 
